Data on 2 compounds can be found in publication PMC2223489, “Influence of single and multiple doses of amifostine on the efficacy and the pharmacokinetics of carboplatin in mice” (British Journal of Cancer, 1997).

Structures are written as SMILES.

The subject of series [1] is human ovarian cancer xenograft OVCAR-3. The experiment in a line: Anti-tumour activity in s.c. OVCAR-3 xenografts in nude mice. Format: in vivo. Particulars: for Growth inhibition (%) (Day): weekly x 2; for Anti-tumour activity (in words): OVCAR-3, carboplatin at the MTD of 60 mg kg-1, amifostine given three times. On the procedure:
(§1) British Joumal of Cancer (1997) 75(10), 1439-1446 ? […] The present study was carried out in well-established human ovarian cancer xenografts OVCAR-3, A2780 and FMa grown subcutaneously in the nude mouse. […] Its anti-tumour activity is assumed to result from the formation of platinum (Pt)-DNA adducts. The clinical use of carboplatin is limited by myelosuppression at a dose in the steep part of the dose-response curve. Therefore, much effort has been put into reducing the toxic side-effects to allow the administration of higher doses of carboplatin. Amifostine [Ethyol, WR-2721, S-2-(3-aminopropylamino)- ethylphosphorothioic acid], initially developed as a radioprotector, is approved for use as a protector against chemotherapy-induced toxicities in the USA and Europe (van der Vijgh and Peters, 1994). […] Such an approach is incorporated into clinical trials in which amifostine is given three times, just before and 2 and 4 h after carboplatin (Betticher et al, 1995; Vermorken et al, 1995). To date, clinical data are available for only a small number of patients. The Amifostine H2N - (CH2)3 - NH - (CH2)2 - S - P03H2 41 alkaline phosphatase WR-1 065 H2N - (CH2)3 - NH - (CH2)2 - S - H 4, oxidation Disulphides H2N - (CH2)3 - NH - (CH2)2 - S - S - R Figure 1 Structural formulas of amifostine, its active metabolite WR-1 065 and the disulphides [with WR-1 065 itself or with endogenous thiols (RSH)] […] However, the influence of multiple doses of amifostine on the anti-tumour activity of carboplatin was not studied. In the present experiments we investigated the influence of multiple doses of amifostine on the efficacy of carboplatin in tumour-bearing nude mice. We also investigated the influence of one and three doses of amifostine on the pharmacokinetics of carboplatin and the formation of Pt-DNA adducts in order to inter- pret the efficacy of carboplatin in the presence of amifostine. Furthermore, we determined the influence of a single dose and multiple doses of amifostine on the body temperature in nude mice.

For series [2], the system named is human ovarian cancer xenograft A2780. Description: Anti-tumour activity in s.c. A2780 xenografts in nude mice. Type of series: in vivo. Particulars: for Growth inhibition (%) (Day): Table 1, carboplatin 60 mg kg-1 i.v. and/or amifostine 3 x 200 mg kg-1 i.p., weekly x 2; for Anti-tumour activity (in words): A2780, carboplatin at the MTD of 60 mg kg-1, amifostine given three times. On the procedure:
as §1

Series [3] has as its system human ovarian cancer xenograft FMa. Description: Anti-tumour activity in s.c. FMa xenografts in nude mice. Format: in vivo. Particulars: for Anti-tumour activity (in words): carboplatin at the MTD of 60 mg kg-1, amifostine given three times; for Growth inhibition (%) (Day): weekly x 2. On the procedure: as §1
A short description of series [4]: Toxicity (weight loss, toxic deaths) in xenograft-bearing nude mice. Type of series: in vivo, female athymic nude mice. The conditions noted are these: weekly x 2. As to the method: as §1
Series [5] can be described thus: Pharmacokinetics of total platinum in OVCAR-3-bearing nude mice (flameless AAS). Format: in vivo. The conditions noted are these: 0.5-24 h, carboplatin 60 mg kg-1 i.v. alone or + single dose amifostine 200 mg kg-1 i.p. As to the method: as §1
For a further series, the system named is DNA. Description: Pt-DNA adduct levels in tissues of OVCAR-3-bearing nude mice (competitive ELISA). Type of series: in vivo. The conditions noted are these: carboplatin 60 mg kg-1 alone or plus one dose of amifostine. On the procedure: as §1
Background: In an ELISA, binding on a coated surface is turned into a signal by an enzyme label.

A short description of series [6]: Body temperature (intrarectal) in non-tumour-bearing nude mice. Format: in vivo. The conditions noted are these: carboplatin 60 mg kg-1 alone; in the 24 h following injection. On the procedure:
British Joumal of Cancer (1997) 75(10), 1439-1446 ? […] The present study was carried out in well-established human ovarian cancer xenografts OVCAR-3, A2780 and FMa grown subcutaneously in the nude mouse. […] Its anti-tumour activity is assumed to result from the formation of platinum (Pt)-DNA adducts. The clinical use of carboplatin is limited by myelosuppression at a dose in the steep part of the dose-response curve. Therefore, much effort has been put into reducing the toxic side-effects to allow the administration of higher doses of carboplatin. Amifostine [Ethyol, WR-2721, S-2-(3-aminopropylamino)- ethylphosphorothioic acid], initially developed as a radioprotector, is approved for use as a protector against chemotherapy-induced toxicities in the USA and Europe (van der Vijgh and Peters, 1994). […] Such an approach is incorporated into clinical trials in which amifostine is given three times, just before and 2 and 4 h after carboplatin (Betticher et al, 1995; Vermorken et al, 1995). To date, clinical data are available for only a small number of patients. […] Furthermore, we determined the influence of a single dose and multiple doses of amifostine on the body temperature in nude mice.

On the set-up of series [7]: method as in Treskes et al, 1994. Particulars: given on days 0 and 7; allowing 10% weight loss within 2 weeks after the first injection; ref Treskes et al, 1994; cited from earlier work.
Where [8] appears, read: OVCAR-3, day 28, Table 1, carboplatin 60 mg kg-1 i.v. and/or amifostine 3 x 200 mg kg-1 i.p.
[9] abbreviates: OVCAR-3, day 35, Table 1, carboplatin 60 mg kg-1 i.v. and/or amifostine 3 x 200 mg kg-1 i.p.
The mark [10] stands for this setting: day 29, Table 1, carboplatin 60 mg kg-1 i.v. and/or amifostine 3 x 200 mg kg-1 i.p.
Setting [11] is: day 36, Table 1, carboplatin 60 mg kg-1 i.v. and/or amifostine 3 x 200 mg kg-1 i.p.
Setting [12] is: A2780-bearing mice, Table 1, carboplatin 60 mg kg-1 i.v. and/or amifostine 3 x 200 mg kg-1 i.p.
[13] abbreviates: FMa-bearing mice, Table 1, carboplatin 60 mg kg-1 i.v. and/or amifostine 3 x 200 mg kg-1 i.p.
Where [14] appears, read: OVCAR-3-bearing mice, Table 1, carboplatin 60 mg kg-1 i.v. and/or amifostine 3 x 200 mg kg-1 i.p.

On to `NCCCNCCSP(=O)(O)O` [amifostine, S-2-(3-aminopropylamino)-ethylphosphorothioic acid], for which the “Growth inhibition (%) (Day)” value in series [1] (setting [8]) was 0.0%; in series [1] (setting [9]), 0.0%; in series [2] (A2780, day 11), 31.1%; in series [2] (A2780, day 14), 17.4%; in series [3] (setting [10]), 20.3%; in series [3] (setting [11]), 21.5%. The “Anti-tumour activity (in words)” value in series [1], in series [2] and in series [3] was “did not have any anti-tumour activity” in each case. The Toxic deaths in series [4] (setting [12]) was 2/6; in series [4] (setting [13]), 0/6; in series [4] (setting [14]), 1/6.
`N.N.O=C([O-])C1(C(=O)[O-])CCC1.[Pt+2]` [carboplatin, cis-diammine( 1,1 -cyclobutanedicarboxylato)plat- inum(II)]: the “Growth inhibition (%) (Day)” value came out at 88.5% in series [1] (OVCAR-3, day 20, Table 2, carboplatin 60 mg kg-1 i.v. alone or + amifostine 1 x 200 mg kg-1 i.p.); 92.4% in series [1] (OVCAR-3, day 27, Table 2, carboplatin 60 mg kg-1 i.v. alone or + amifostine 1 x 200 mg kg-1 i.p.); 93.2% in series [1] (setting [8]); 89.0% in series [1] (setting [9]); 28.8% in series [2] (A2780, day 11); 14.0% in series [2] (A2780, day 14). The “Growth inhibition (%) (Day)” value in series [3] (day 21, Table 2, carboplatin 60 mg kg-1 i.v. alone or + amifostine 1 x 200 mg kg-1 i.p.) is 79.2%; in series [3] (day 28, Table 2, carboplatin 60 mg kg-1 i.v. alone or + amifostine 1 x 200 mg kg-1 i.p.), 76.0%; in series [3] (setting [10]), 90.3%; in series [3] (setting [11]), 89.3%. Further, the “Anti-tumour activity (in words)” value is listed as “active” in series [1], “no significant influence” in series [2] and “active” in series [3]. In addition, the Toxic deaths is reported as 0/5 in series [4] (setting [12]); 0/6 in series [4] (setting [13]); 0/6 in series [4] (FMa-bearing mice, Table 2, carboplatin 60 mg kg-1 i.v. alone or + amifostine 1 x 200 mg kg-1 i.p.); 0/5 in series [4] (setting [14]); 0/6 in series [4] (OVCAR-3-bearing mice, Table 2, carboplatin 60 mg kg-1 i.v. alone or + amifostine 1 x 200 mg kg-1 i.p.). In addition, the “AUC of total platinum in OVCAR-3 tumour tissue” value in series [5] is given as 146.8 nmol g(-1) x h. For the same compound, in series [5], the “AUC of total platinum in kidney” value is listed as 368.3 nmol g(-1) x h. For the same compound, the “AUC of total platinum in liver” value in series [5] is listed as 236.4 nmol g(-1) x h. Moreover, the “AUC of total platinum in plasma ultrafiltrate” value in series [5] came out at 18.2 microM x h. Further, the “Ratio AUC Pt-DNA adducts/AUC total platinum, kidney” value in the series with DNA worked out at 0.51. Besides, in the series with DNA, the “Ratio AUC Pt-DNA adducts/AUC total platinum, liver” value is 0.23. In addition, the “Ratio AUC Pt-DNA adducts/AUC total platinum, tumour tissue” value with DNA is listed as 0.56. The “Body temperature (not decreased)” value in series [6] is 37 0C. The “Maximum tolerated dose (MTD) of carboplatin” value in series [7] is 60 mg kg-'.
